System: Acinetobacter baumannii
Test: Antimicrobial activity against Acinetobacter baumannii after 24 hrs by NCCLS-protocol based assay
Type: functional
Conditions: not given

**Q.** With H-VKPVVKPVVKPVVKPVVKPVVKPVVKPV-NH2 as the substance, how does the MIC95 read?
**A.** > 64 µM

System: Acinetobacter baumannii
Test: Bactericidal activity against Acinetobacter baumannii incubated for 4 hrs followed by culture spread on agar plates and cultured overnight
Type: functional
Conditions: read-out: MBC>99.9

**Q.** For H-VKPVVKPVVKPVVKPVVKPVVKPVVKPV-NH2, which MBC is on record?
**A.** > 64 µM

System: Pseudomonas aeruginosa
Test: Bactericidal activity against Pseudomonas aeruginosa 25349 clinical isolates incubated for 4 hrs followed by culture spread on agar plates and cultured overnight
Type: functional
Conditions: Pseudomonas aeruginosa, 25349, 4 h; read-out: MBC>99.9

**Q.** Which MBC does the source give for H-VKPVVKPVVKPVVKPVVKPVVKPVVKPV-NH2 here?
**A.** > 64 µM

System: Escherichia coli
Test: Bactericidal activity against Escherichia coli ATCC 25922 incubated for 4 hrs followed by culture spread on agar plates and cultured overnight
Type: functional
Conditions: ATCC 25922, 4 h, read-out: MBC>99.9

**Q.** For H-VKPVVKPVVKPVVKPVVKPVVKPVVKPV-NH2, which MBC is on record?
**A.** > 64 µM

System: Salmonella typhimurium
Test: Bactericidal activity against Salmonella typhimurium ATCC 14028 incubated for 4 hrs followed by culture spread on agar plates and cultured overnight
Type: functional, Salmonella enterica subsp. enterica serovar Typhimurium
Conditions: Salmonella enterica, ATCC 14028, 4 h; read-out: MBC>99.9

**Q.** For H-VKPVVKPVVKPVVKPVVKPVVKPVVKPV-NH2, which MBC is on record?
**A.** > 64 µM

System: Escherichia coli
Test: Bactericidal activity against Escherichia coli K99 incubated for 4 hrs followed by culture spread on agar plates and cultured overnight
Type: functional
Conditions: K99, 4 h, read-out: MBC>99.9

**Q.** For H-VKPVVKPVVKPVVKPVVKPVVKPVVKPV-NH2, which MBC is on record?
**A.** > 64 µM

System: Pseudomonas aeruginosa
Test: Bactericidal activity against Pseudomonas aeruginosa CICC 21625 clinical isolates incubated for 4 hrs followed by culture spread on agar plates and cultured overnight
Type: functional
Conditions: CICC 21625, 4 h, read-out: MBC>99.9

**Q.** Which MBC does the source give for H-VKPVVKPVVKPVVKPVVKPVVKPVVKPV-NH2 here?
**A.** > 64 µM

System: Escherichia coli
Test: Bactericidal activity against Escherichia coli 078 incubated for 4 hrs followed by culture spread on agar plates and cultured overnight
Type: functional
Conditions: Escherichia coli, 078, 4 h; read-out: MBC>99.9

**Q.** Which MBC does the source give for H-VKPVVKPVVKPVVKPVVKPVVKPVVKPV-NH2 here?
**A.** > 64 µM

System: Salmonella typhimurium
Test: Antimicrobial activity against Salmonella typhimurium ATCC 14028 after 24 hrs by NCCLS-protocol based assay
Type: functional, Salmonella enterica subsp. enterica serovar Typhimurium
Conditions: Salmonella enterica, ATCC 14028, 24 h

**Q.** With H-VKPVVKPVVKPVVKPVVKPVVKPVVKPV-NH2 as the substance, how does the MIC95 read?
**A.** > 64 µM

System: Pseudomonas aeruginosa
Test: Antimicrobial activity against Pseudomonas aeruginosa 25349 clinical isolates after 24 hrs by NCCLS-protocol based assay
Type: functional
Conditions: Pseudomonas aeruginosa, 25349, 24 h

**Q.** With H-VKPVVKPVVKPVVKPVVKPVVKPVVKPV-NH2 as the substance, how does the MIC95 read?
**A.** > 64 µM

System: Escherichia coli
Test: Bactericidal activity against Escherichia coli UB1005 incubated for 4 hrs followed by culture spread on agar plates and cultured overnight
Type: functional
Conditions: UB1005, 4 h, read-out: MBC>99.9

**Q.** For H-VKPVVKPVVKPVVKPVVKPVVKPVVKPV-NH2, which MBC is on record?
**A.** > 64 µM

System: not listed separately
Test: Antimicrobial activity against Salmonella pullorum C7913 after 24 hrs by NCCLS-protocol based assay
Type: functional, Salmonella enterica subsp. enterica serovar Pullorum
Conditions: Salmonella enterica, C7913, 24 h

**Q.** Which MIC95 does the source give for H-VKPVVKPVVKPVVKPVVKPVVKPVVKPV-NH2 here?
**A.** > 64 µM

System: Pseudomonas aeruginosa
Test: Antimicrobial activity against Pseudomonas aeruginosa ATCC 27853 after 24 hrs by NCCLS-protocol based assay
Type: functional
Conditions: ATCC 27853, 24 h

**Q.** For H-VKPVVKPVVKPVVKPVVKPVVKPVVKPV-NH2, which MIC95 is on record?
**A.** > 64 µM

System: Salmonella typhimurium
Test: Bactericidal activity against Salmonella typhimurium C7731 incubated for 4 hrs followed by culture spread on agar plates and cultured overnight
Type: functional, Salmonella enterica subsp. enterica serovar Typhimurium
Conditions: Salmonella enterica, C7731, 4 h; read-out: MBC>99.9

**Q.** Which MBC does the source give for H-VKPVVKPVVKPVVKPVVKPVVKPVVKPV-NH2 here?
**A.** > 64 µM

System: Pseudomonas aeruginosa
Test: Bactericidal activity against Pseudomonas aeruginosa PAO1 incubated for 4 hrs followed by culture spread on agar plates and cultured overnight
Type: functional
Conditions: PAO1, 4 h, read-out: MBC>99.9

**Q.** For H-VKPVVKPVVKPVVKPVVKPVVKPVVKPV-NH2, which MBC is on record?
**A.** > 64 µM

System: Pseudomonas aeruginosa
Test: Antimicrobial activity against Pseudomonas aeruginosa PAO1 after 24 hrs by NCCLS-protocol based assay
Type: functional
Conditions: PAO1, 24 h

**Q.** Which MIC95 does the source give for H-VKPVVKPVVKPVVKPVVKPVVKPVVKPV-NH2 here?
**A.** > 64 µM

System: Escherichia coli
Test: Antimicrobial activity against Escherichia coli K99 after 24 hrs by NCCLS-protocol based assay
Type: functional
Conditions: K99, 24 h

**Q.** With H-VKPVVKPVVKPVVKPVVKPVVKPVVKPV-NH2 as the substance, how does the MIC95 read?
**A.** > 64 µM

System: Escherichia coli
Test: Antimicrobial activity against Escherichia coli K88 after 24 hrs by NCCLS-protocol based assay
Type: functional
Conditions: K88, 24 h

**Q.** For H-VKPVVKPVVKPVVKPVVKPVVKPVVKPV-NH2, which MIC95 is on record?
**A.** > 64 µM

System: Escherichia coli
Test: Bactericidal activity against Escherichia coli K88 incubated for 4 hrs followed by culture spread on agar plates and cultured overnight
Type: functional
Conditions: K88, 4 h, read-out: MBC>99.9

**Q.** Which MBC does the source give for H-VKPVVKPVVKPVVKPVVKPVVKPVVKPV-NH2 here?
**A.** > 64 µM

System: Pseudomonas aeruginosa
Test: Antimicrobial activity against Pseudomonas aeruginosa 26305 clinical isolates after 24 hrs by NCCLS-protocol based assay
Type: functional
Conditions: Pseudomonas aeruginosa, 26305, 24 h

**Q.** Which MIC95 does the source give for H-VKPVVKPVVKPVVKPVVKPVVKPVVKPV-NH2 here?
**A.** > 64 µM

System: Klebsiella pneumoniae
Test: Bactericidal activity against Klebsiella pneumoniae incubated for 4 hrs followed by culture spread on agar plates and cultured overnight
Type: functional
Conditions: read-out: MBC>99.9

**Q.** For H-VKPVVKPVVKPVVKPVVKPVVKPVVKPV-NH2, which MBC is on record?
**A.** > 64 µM

System: Pseudomonas aeruginosa
Test: Bactericidal activity against Pseudomonas aeruginosa CICC 21630 clinical isolates incubated for 4 hrs followed by culture spread on agar plates and cultured overnight
Type: functional
Conditions: CICC 21630, 4 h, read-out: MBC>99.9

**Q.** With H-VKPVVKPVVKPVVKPVVKPVVKPVVKPV-NH2 as the substance, how does the MBC read?
**A.** > 64 µM

System: not listed separately
Test: Bactericidal activity against Salmonella pullorum C7913 incubated for 4 hrs followed by culture spread on agar plates and cultured overnight
Type: functional, Salmonella enterica subsp. enterica serovar Pullorum
Conditions: Salmonella enterica, C7913, 4 h; read-out: MBC>99.9

**Q.** For H-VKPVVKPVVKPVVKPVVKPVVKPVVKPV-NH2, which MBC is on record?
**A.** > 64 µM

System: Salmonella typhimurium
Test: Antimicrobial activity against Salmonella typhimurium C7731 after 24 hrs by NCCLS-protocol based assay
Type: functional, Salmonella enterica subsp. enterica serovar Typhimurium
Conditions: Salmonella enterica, C7731, 24 h

**Q.** With H-VKPVVKPVVKPVVKPVVKPVVKPVVKPV-NH2 as the substance, how does the MIC95 read?
**A.** > 64 µM

System: Pseudomonas aeruginosa
Test: Antimicrobial activity against Pseudomonas aeruginosa CICC 21630 clinical isolates after 24 hrs by NCCLS-protocol based assay
Type: functional
Conditions: CICC 21630, 24 h

**Q.** With H-VKPVVKPVVKPVVKPVVKPVVKPVVKPV-NH2 as the substance, how does the MIC95 read?
**A.** > 64 µM

System: Pseudomonas aeruginosa
Test: Bactericidal activity against Pseudomonas aeruginosa 26305 clinical isolates incubated for 4 hrs followed by culture spread on agar plates and cultured overnight
Type: functional
Conditions: Pseudomonas aeruginosa, 26305, 4 h; read-out: MBC>99.9

**Q.** Which MBC does the source give for H-VKPVVKPVVKPVVKPVVKPVVKPVVKPV-NH2 here?
**A.** > 64 µM

System: Escherichia coli
Test: Antimicrobial activity against Escherichia coli ATCC 25922 after 24 hrs by NCCLS-protocol based assay
Type: functional
Conditions: ATCC 25922, 24 h

**Q.** Which MIC95 does the source give for H-VKPVVKPVVKPVVKPVVKPVVKPVVKPV-NH2 here?
**A.** > 64 µM

System: Escherichia coli
Test: Antimicrobial activity against Escherichia coli 078 after 24 hrs by NCCLS-protocol based assay
Type: functional
Conditions: Escherichia coli, 078, 24 h

**Q.** For H-VKPVVKPVVKPVVKPVVKPVVKPVVKPV-NH2, which MIC95 is on record?
**A.** > 64 µM

System: Pseudomonas aeruginosa
Test: Bactericidal activity against Pseudomonas aeruginosa ATCC 27853 incubated for 4 hrs followed by culture spread on agar plates and cultured overnight
Type: functional
Conditions: ATCC 27853, 4 h, read-out: MBC>99.9

**Q.** Which MBC does the source give for H-VKPVVKPVVKPVVKPVVKPVVKPVVKPV-NH2 here?
**A.** > 64 µM

System: Pseudomonas aeruginosa
Test: Antimicrobial activity against Pseudomonas aeruginosa CICC 21625 clinical isolates after 24 hrs by NCCLS-protocol based assay
Type: functional
Conditions: CICC 21625, 24 h

**Q.** For H-VKPVVKPVVKPVVKPVVKPVVKPVVKPV-NH2, which MIC95 is on record?
**A.** > 64 µM

System: Escherichia coli
Test: Antimicrobial activity against Escherichia coli UB1005 after 24 hrs by NCCLS-protocol based assay
Type: functional
Conditions: UB1005, 24 h

**Q.** For H-VKPVVKPVVKPVVKPVVKPVVKPVVKPV-NH2, which MIC95 is on record?
**A.** > 64 µM

System: Klebsiella pneumoniae
Test: Antimicrobial activity against Klebsiella pneumoniae after 24 hrs by NCCLS-protocol based assay
Type: functional
Conditions: not given

**Q.** With H-VKPVVKPVVKPVVKPVVKPVVKPVVKPV-NH2 as the substance, how does the MIC95 read?
**A.** > 64 µM

Source: ChEMBL document CHEMBL4316596, “Antimicrobial Peptides with High Proteolytic Resistance for Combating Gram-Negative Bacteria” (J Med Chem, 2019)
